{"source": "paper PMC7158207", "about": "(Clinical Pharmacology and Therapeutics, 2019)", "key": {"[1]": {"assay": "Dose-exposure proportionality in dose-escalating studies", "format": "in vivo, human", "conditions": "based on data of ref 20"}, "[2]": {"assay": "Thermodynamic solubility measurement in FaSSIF pH 6.5 and SGF pH 1.6", "format": "physicochemical", "conditions": "37 °C, thermodynamic from solid"}, "[3]": {"assay": "Caco-2 apparent passive permeability", "format": "in vitro ADME", "conditions": "human, Caco-2, pH 7.4"}, "[4]": {"conditions": "cited from earlier work"}, "[5]": {"conditions": "after oral administration; cited from earlier work"}, "[6]": {"conditions": "cited from earlier work; for AUC fed/fasted ratio / Cmax fed/fasted ratio: erlotinib 150 mg"}, "[7]": {"conditions": "ref 36 (dabrafenib), 40 (vemurafenib), 18 (pazopanib); cited from earlier work"}, "[8]": {"conditions": "BCS II/IV drugs; cited from earlier work"}, "[9]": {"conditions": "single dose, crizotinib 50-300, trametinib 0.125-10, dabrafenib 12-300, gefitinib 50-500 (HV), vemurafenib 240-960, pazopanib 50-2,000 mg"}, "[10]": {"conditions": "SGF, pH 1.6, simulated gastric fluid"}}, "note": "Structures can show the parent of a compound that is named as a salt. Where two headings read alike, the source gives them in different places."}
{"smiles": "C[C@@H](Oc1cc(-c2cnn(C3CCNCC3)c2)cnc1N)c1c(Cl)ccc(F)c1Cl", "note": "[Crizotinib]", "values": [{"measurement": "dose proportionality of single-dose PK in the authors' assessment", "setting": "[1]", "value": "linear"}, {"measurement": "solubility at 24 h", "setting": "[2]; FaSSIF, pH 6.5, fassif", "value": 743, "unit": "µg/mL"}, {"measurement": "Papp", "setting": "[3]", "value": 15.3, "unit": "×10⁻⁶ cm/s"}, {"measurement": "Increase in exposure (dose-exposure proportionality)", "setting": "[4]; [9]", "value": "Less than proportional"}]}
{"smiles": "CC(C)(C)c1nc(-c2cccc(NS(=O)(=O)c3c(F)cccc3F)c2F)c(-c2ccnc(N)n2)s1", "note": "[Dabrafenib, Dabrafenib mesylate]", "values": [{"measurement": "solubility at 24 h", "setting": "[2]; FaSSIF, pH 6.5, fassif", "value": 3.7, "unit": "µg/mL"}, {"measurement": "solubility at 24 h", "setting": "[2]; [10]", "value": 11.7, "unit": "µg/mL"}, {"measurement": "Papp", "setting": "[3]", "value": 12.4, "unit": "×10⁻⁶ cm/s"}, {"measurement": "Increase in exposure (dose-exposure proportionality)", "setting": "[4]; [9]", "value": "Dose proportional"}]}
{"smiles": "C#Cc1cccc(Nc2ncnc3cc(OCCOC)c(OCCOC)cc23)c1", "note": "[Erlotinib, erlotinib HCl]", "values": [{"measurement": "dose as parent drug in the feces", "setting": "[5]", "value": "1 % of the dose"}, {"measurement": "solubility at 24 h", "setting": "[2]; FaSSIF, pH 6.5, fassif", "value": 12.4, "unit": "µg/mL"}, {"measurement": "solubility at 24 h", "setting": "[2]; [10]", "value": 166, "unit": "µg/mL"}, {"measurement": "Papp", "setting": "[3]", "value": 40.4, "unit": "×10⁻⁶ cm/s"}, {"measurement": "AUC fed/fasted ratio", "setting": "[6]; first value (first period)", "value": 1.97}, {"measurement": "Cmax fed/fasted ratio", "setting": "[6]; first value (first period)", "value": 1.57}, {"measurement": "AUC fed/fasted ratio", "setting": "[6]; second value (second period)", "value": 0.93}, {"measurement": "Cmax fed/fasted ratio", "setting": "[6]; second value (second period)", "value": 1.15}, {"measurement": "Increase in exposure (dose-exposure proportionality)", "setting": "[4]; dosing schedule N.A., imatinib 25-1,000 mg, erlotinib 100-1,000 mg", "value": "Dose proportional38"}]}
{"smiles": "COc1cc2ncnc(Nc3ccc(F)c(Cl)c3)c2cc1OCCCN1CCOCC1", "note": "[Gefitinib, gefitinib]", "values": [{"measurement": "solubility at 24 h", "setting": "[2]; FaSSIF, pH 6.5, fassif", "value": 88.7, "unit": "µg/mL"}, {"measurement": "Papp", "setting": "[3]", "value": 10.4, "unit": "×10⁻⁶ cm/s"}, {"measurement": "Increase in exposure (dose-exposure proportionality)", "setting": "[4]; [9]", "value": "Dose proportional"}]}
{"smiles": "CS(=O)(=O)CCNCc1ccc(-c2ccc3ncnc(Nc4ccc(OCc5cccc(F)c5)c(Cl)c4)c3c2)o1", "note": "[Lapatinib, lapatinib ditosylate monohydrate]", "values": [{"measurement": "solubility at 24 h", "setting": "[2]; FaSSIF, pH 6.5, fassif", "value": 35, "unit": "µg/mL"}, {"measurement": "solubility at 24 h", "setting": "[2]; [10]", "value": 5.5, "unit": "µg/mL"}, {"measurement": "Papp", "setting": "[3]", "value": 0.21, "unit": "×10⁻⁶ cm/s"}]}
{"smiles": "Cc1ccc(Nc2nccc(N(C)c3ccc4c(C)n(C)nc4c3)n2)cc1S(N)(=O)=O", "note": "[Pazopanib, pazopanib hydrochloride (HCl)]", "values": [{"measurement": "solubility at 24 h", "setting": "[2]; FaSSIF, pH 6.5, fassif", "value": 1.2, "unit": "µg/mL"}, {"measurement": "solubility at 24 h", "setting": "[2]; [10]", "value": 1080, "unit": "µg/mL"}, {"measurement": "pKa values (acidic)", "setting": "[7]", "value": 10.218}, {"measurement": "Papp", "setting": "[3]", "value": 28.5, "unit": "×10⁻⁶ cm/s"}, {"measurement": "Increase in exposure (dose-exposure proportionality)", "setting": "[4]; [9]", "value": "Less than proportional Less than proportional18"}]}
{"smiles": "CC(=O)Nc1cccc(-n2c(=O)n(C3CC3)c(=O)c3c(Nc4ccc(I)cc4F)n(C)c(=O)c(C)c32)c1", "note": "[Trametinib, trametinib *DMSO solvate]", "values": [{"measurement": "Papp", "setting": "[3]", "value": 15.4, "unit": "×10⁻⁶ cm/s"}, {"measurement": "food effect", "setting": "[6]; poorly water-soluble anticancer drugs", "value": "only a modest food effect, if any"}, {"measurement": "Increase in exposure (dose-exposure proportionality)", "setting": "[4]; [9]", "value": "More than proportional (Cmax proportional)24"}]}
{"smiles": "CCCS(=O)(=O)Nc1ccc(F)c(C(=O)c2c[nH]c3ncc(-c4ccc(Cl)cc4)cc23)c1F", "note": "[Vemurafenib, vemurafenib]", "values": [{"measurement": "solubility at 24 h", "setting": "[2]; FaSSIF, pH 6.5, fassif", "value": 5.4, "unit": "µg/mL"}, {"measurement": "solubility at 24 h", "setting": "[2]; [10]", "value": 0.3, "unit": "µg/mL"}, {"measurement": "Papp", "setting": "[3]", "value": 0.11, "unit": "×10⁻⁶ cm/s"}, {"measurement": "Increase in exposure (dose-exposure proportionality)", "setting": "[4]; [9]", "value": "Dose proportional Dose proportional40"}]}
{"smiles": "O=C1NC(=O)C(c2ccccc2)(c2ccccc2)N1", "note": "[phenytoin]", "values": [{"measurement": "absolute bioavailability (F)", "setting": "[8]", "value": "> 90", "unit": "%"}]}
